{"source": "ChEMBL document CHEMBL3603836", "about": "“Hybrid pyrimidine alkynyls inhibit the clinically resistance related Bcr-Abl(T315I) mutant” (Bioorg Med Chem Lett, 2015)", "key": {"[1]": {"tested_on": "Mus musculus", "test": "Toxicity in human K562 cells expressing wild type Bcr-Abl xenografted mouse assessed as change in body weight at 3.3 to 10 mg/kg, po qd for 16 days relative to control", "assay_type": "organism-based", "details": "in vivo, 384 h"}, "[2]": {"tested_on": "Tyrosine-protein kinase ABL1 (Mus musculus), P00520 [T315I]", "sequence (P00520 whole entry T315I)": "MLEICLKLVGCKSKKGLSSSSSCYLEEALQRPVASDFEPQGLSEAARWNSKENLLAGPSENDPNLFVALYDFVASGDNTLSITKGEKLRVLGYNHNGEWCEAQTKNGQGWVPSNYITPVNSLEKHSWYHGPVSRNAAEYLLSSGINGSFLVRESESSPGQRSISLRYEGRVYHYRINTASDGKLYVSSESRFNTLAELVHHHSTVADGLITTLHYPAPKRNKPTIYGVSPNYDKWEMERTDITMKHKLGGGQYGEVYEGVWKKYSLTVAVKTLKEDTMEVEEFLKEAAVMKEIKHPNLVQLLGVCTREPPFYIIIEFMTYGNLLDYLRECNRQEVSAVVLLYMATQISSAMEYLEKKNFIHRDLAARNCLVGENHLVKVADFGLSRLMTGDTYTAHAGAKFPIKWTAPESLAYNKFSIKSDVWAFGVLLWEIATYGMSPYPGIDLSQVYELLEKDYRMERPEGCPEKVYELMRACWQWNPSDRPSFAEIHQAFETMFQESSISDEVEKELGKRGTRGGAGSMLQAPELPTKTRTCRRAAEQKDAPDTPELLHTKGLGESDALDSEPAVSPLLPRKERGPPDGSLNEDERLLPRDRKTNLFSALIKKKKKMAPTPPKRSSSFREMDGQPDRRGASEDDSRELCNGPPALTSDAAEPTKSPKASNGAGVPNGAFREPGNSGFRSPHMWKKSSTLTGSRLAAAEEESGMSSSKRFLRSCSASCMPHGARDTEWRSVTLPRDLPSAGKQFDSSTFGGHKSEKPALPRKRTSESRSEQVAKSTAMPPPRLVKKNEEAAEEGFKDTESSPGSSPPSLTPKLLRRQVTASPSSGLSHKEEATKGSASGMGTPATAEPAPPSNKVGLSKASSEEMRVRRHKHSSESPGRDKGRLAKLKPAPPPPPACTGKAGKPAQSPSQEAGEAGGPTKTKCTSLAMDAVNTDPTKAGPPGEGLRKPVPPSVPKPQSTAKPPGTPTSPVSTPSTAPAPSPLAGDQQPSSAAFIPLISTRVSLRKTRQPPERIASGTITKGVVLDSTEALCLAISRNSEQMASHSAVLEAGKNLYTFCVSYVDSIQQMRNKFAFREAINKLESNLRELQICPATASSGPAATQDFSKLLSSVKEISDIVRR", "test": "Inhibition of Bcr-Abl T315I mutant in mouse BA/F3 cells assessed as reduction of CRKL phosphorylation at 4 to 500 nM after 4 hrs by Western blot analysis", "assay_type": "cell-based", "details": "BaF3"}, "[3]": {"tested_on": "Tyrosine-protein kinase ABL1 (Mus musculus), P00520 [T315I]", "test": "Inhibition of Bcr-Abl T315I mutant in mouse BA/F3 cells assessed as total protein level of Bcr-Abl at 4 to 500 nM after 4 hrs by Western blot analysis", "assay_type": "cell-based", "details": "BaF3"}, "[4]": {"tested_on": "Tyrosine-protein kinase ABL1 (Mus musculus), P00520 [T315I]", "test": "Inhibition of Bcr-Abl T315I mutant in mouse BA/F3 cells assessed as total protein level of CRKL at 4 to 500 nM after 4 hrs by Western blot analysis", "assay_type": "cell-based", "details": "BaF3"}, "[5]": {"tested_on": "K562", "test": "Cell cycle arrest in human K562 cells expressing wild type Bcr-Abl assessed as accumulation at G0/G1 phase at 4 nM after 24 hrs using propidium iodide staining by flow cytometry (reference value: 64.03%)", "assay_type": "functional"}, "[6]": {"tested_on": "K562", "test": "Cell cycle arrest in human K562 cells expressing wild type Bcr-Abl assessed as accumulation at G0/G1 phase at 100 nM after 24 hrs using propidium iodide staining by flow cytometry (reference value: 64.03%)", "assay_type": "functional"}, "[7]": {"tested_on": "K562", "test": "Induction of apoptosis in human K562 cells expressing wild type Bcr-Abl assessed as early apoptotic cells at 0.8 nM after 24 hrs using annexin-V/7-AAD staining by FACS analysis (reference value: 7.3%)", "assay_type": "functional"}, "[8]": {"tested_on": "K562", "test": "Induction of apoptosis in human K562 cells expressing wild type Bcr-Abl assessed as early apoptotic cells at 4 nM after 24 hrs using annexin-V/7-AAD staining by FACS analysis (reference value: 7.3%)", "assay_type": "functional"}, "[9]": {"tested_on": "K562", "test": "Induction of apoptosis in human K562 cells expressing wild type Bcr-Abl assessed as early apoptotic cells at 100 nM after 24 hrs using annexin-V/7-AAD staining by FACS analysis (reference value: 7.3%)", "assay_type": "functional"}, "[10]": {"test": "Cell cycle arrest in mouse BA/F3 cells expressing Bcr-Abl T315I mutant assessed as accumulation at G0/G1 phase at 100 nM after 24 hrs using propidium iodide staining by flow cytometry (reference value: 51.92%)", "assay_type": "functional, cell-based", "details": "BaF3"}, "[11]": {"tested_on": "BaF3", "test": "Induction of apoptosis in mouse BA/F3 cells expressing Bcr-Abl T315I mutant assessed as late apoptotic cells at 100 nM after 24 hrs using annexin-V/7-AAD staining by FACS analysis (reference value: 2.2%)", "assay_type": "functional"}, "[12]": {"tested_on": "BaF3", "test": "Induction of apoptosis in mouse BA/F3 cells expressing Bcr-Abl T315I mutant assessed as early apoptotic cells at 100 nM after 24 hrs using annexin-V/7-AAD staining by FACS analysis (reference value: 4.6%)", "assay_type": "functional"}, "[13]": {"test": "Cell cycle arrest in mouse BA/F3 cells expressing Bcr-Abl T315I mutant assessed as accumulation at G0/G1 phase after 24 hrs using propidium iodide staining by flow cytometry", "assay_type": "functional, cell-based", "details": "BaF3"}, "[14]": {"tested_on": "K562", "test": "Antitumor activity against human K562 cells expressing wild type Bcr-Abl xenografted in po dosed mouse assessed as tumor growth inhibition administered qd for 16 days", "assay_type": "functional, organism-based"}, "[15]": {"tested_on": "BaF3", "test": "Antitumor activity against mouse BA/F3 cells expressing Bcr-Abl T315I mutant allografted in po dosed mouse assessed as tumor growth inhibition administered qd for 16 days", "assay_type": "functional, organism-based"}, "[16]": {"tested_on": "BaF3", "test": "Antitumor activity against mouse BA/F3 cells expressing Bcr-Abl T315I mutant allografted in mouse assessed as tumor growth inhibition at 10 mg/kg, qd for 16 days", "assay_type": "functional, organism-based"}, "[17]": {"tested_on": "Mus musculus", "test": "Toxicity in human K562 cells expressing wild type Bcr-Abl xenografted mouse assessed as mortality at 3.3 to 10 mg/kg, po qd for 16 days", "assay_type": "organism-based", "details": "in vivo, 384 h"}, "[18]": {"tested_on": "K562", "test": "cells", "details": "Homo sapiens, K562, 72 h", "description": "Antiproliferative activity against human K562 cells expressing wild type Bcr-Abl after 72 hrs by CCK-8 assay"}}, "note": "Active and inactive are the calls of the source. The calls are words filed in the database; no cut-off is given here."}
{"smiles": "Cc1cn(-c2cc(NC(=O)c3ccc(C)c(C#Cc4cnc(NC5CC5)nc4)c3)cc(C(F)(F)F)c2)cn1", "values": [{"measurement": "Activity", "setting": "[1]", "result": "< 5", "unit": "%"}, {"measurement": "inhibition", "setting": "[2]", "result": "Active"}, {"measurement": "inhibition", "setting": "[3]", "result": "inactive"}, {"measurement": "inhibition", "setting": "[4]", "result": "inactive"}, {"measurement": "Activity", "setting": "[5]", "result": 85.99, "unit": "%"}, {"measurement": "Activity", "setting": "[6]", "result": 91.44, "unit": "%"}, {"measurement": "Activity", "setting": "[7]", "result": 7.1, "unit": "%"}, {"measurement": "Activity", "setting": "[8]", "result": 6.7, "unit": "%"}, {"measurement": "Activity", "setting": "[9]", "result": 73.6, "unit": "%"}, {"measurement": "Activity", "setting": "[10]", "result": 67.2, "unit": "%"}, {"measurement": "Activity", "setting": "[11]", "result": 4, "unit": "%"}, {"measurement": "Activity", "setting": "[12]", "result": 7.1, "unit": "%"}, {"measurement": "Activity", "setting": "[13]", "result": "Dose-dependent effect"}, {"measurement": "growth inhibition (GI)", "setting": "[14]", "result": "Dose-dependent effect"}, {"measurement": "growth inhibition (GI)", "setting": "[15]", "result": "Dose-dependent effect"}, {"measurement": "Activity", "setting": "[16]", "result": "inactive"}, {"measurement": "Activity", "setting": "[17]", "result": "Non-toxic"}, {"measurement": "IC50", "setting": "[18]", "result": 2, "unit": "nM"}]}
